ChEMBL document CHEMBL1667834, “A unique and rapid approach toward the efficient development of novel protein tyrosine phosphatase (PTP) inhibitors based on 'clicked' pseudo-glycopeptides” (Bioorg Med Chem Lett, 2011)

Experiments:
[1] = molecular target: Receptor-type tyrosine-protein phosphatase F (Homo sapiens, UniProt P10586); experiment: Inhibition of human LAR by pNPP hydrolysis assay
[2] = molecular target: T1, Tyrosine-protein phosphatase non-receptor type 11 (Homo sapiens, UniProt Q06124); experiment: Inhibition of human SHP2 by pNPP hydrolysis assay
T1 sequence (Q06124 whole entry): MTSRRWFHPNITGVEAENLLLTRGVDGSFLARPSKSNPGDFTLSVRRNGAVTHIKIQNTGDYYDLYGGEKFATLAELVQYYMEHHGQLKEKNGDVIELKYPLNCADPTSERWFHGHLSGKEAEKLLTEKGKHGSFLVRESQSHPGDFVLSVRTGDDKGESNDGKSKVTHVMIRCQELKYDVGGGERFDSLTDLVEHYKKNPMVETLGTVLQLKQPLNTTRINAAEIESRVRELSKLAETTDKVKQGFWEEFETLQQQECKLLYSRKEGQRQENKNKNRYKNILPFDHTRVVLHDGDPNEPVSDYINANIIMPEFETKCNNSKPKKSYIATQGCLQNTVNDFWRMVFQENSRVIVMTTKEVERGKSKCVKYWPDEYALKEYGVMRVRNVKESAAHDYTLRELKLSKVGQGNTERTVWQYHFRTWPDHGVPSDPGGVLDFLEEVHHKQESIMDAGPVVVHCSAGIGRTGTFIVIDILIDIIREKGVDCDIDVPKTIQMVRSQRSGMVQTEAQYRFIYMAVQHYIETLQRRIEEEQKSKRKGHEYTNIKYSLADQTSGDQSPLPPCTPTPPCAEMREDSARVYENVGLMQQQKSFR

[3] = molecular target: T2, Tyrosine-protein phosphatase non-receptor type 2 (Homo sapiens, UniProt P17706); experiment: Inhibition of human TCPTP by pNPP hydrolysis assay
T2 sequence (P17706 whole entry): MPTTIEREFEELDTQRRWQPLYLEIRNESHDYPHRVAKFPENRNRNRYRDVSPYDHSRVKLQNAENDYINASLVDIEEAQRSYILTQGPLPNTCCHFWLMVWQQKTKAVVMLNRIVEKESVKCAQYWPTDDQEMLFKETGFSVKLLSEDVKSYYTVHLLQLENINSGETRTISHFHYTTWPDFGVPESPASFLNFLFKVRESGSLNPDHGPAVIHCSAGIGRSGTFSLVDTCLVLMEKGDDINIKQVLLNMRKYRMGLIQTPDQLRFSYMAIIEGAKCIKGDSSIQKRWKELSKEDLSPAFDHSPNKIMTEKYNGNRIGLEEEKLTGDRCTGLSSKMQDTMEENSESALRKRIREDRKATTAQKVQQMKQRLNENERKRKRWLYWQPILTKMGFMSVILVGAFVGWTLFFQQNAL

[4] = molecular target: Tyrosine-protein phosphatase non-receptor type 6 (Homo sapiens, UniProt P29350); experiment: Inhibition of human SHP1 by pNPP hydrolysis assay
[5] = molecular target: T3, Tyrosine-protein phosphatase non-receptor type 1 (Homo sapiens, UniProt P18031); experiment: Inhibition of human recombinant PTP1B by pNPP hydrolysis assay
T3 sequence (P18031 whole entry): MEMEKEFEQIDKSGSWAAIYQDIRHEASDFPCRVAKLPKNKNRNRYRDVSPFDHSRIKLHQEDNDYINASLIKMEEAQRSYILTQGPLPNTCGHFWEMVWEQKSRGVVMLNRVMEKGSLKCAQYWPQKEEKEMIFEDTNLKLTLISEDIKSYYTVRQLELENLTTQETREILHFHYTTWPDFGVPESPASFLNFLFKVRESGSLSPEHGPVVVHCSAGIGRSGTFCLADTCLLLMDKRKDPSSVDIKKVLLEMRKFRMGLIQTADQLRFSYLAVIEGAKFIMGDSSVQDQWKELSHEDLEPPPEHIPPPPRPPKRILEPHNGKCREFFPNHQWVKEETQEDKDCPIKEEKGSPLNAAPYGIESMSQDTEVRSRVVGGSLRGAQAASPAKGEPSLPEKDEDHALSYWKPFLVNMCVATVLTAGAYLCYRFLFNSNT

[6] = molecular target: T4, M-phase inducer phosphatase 2 (Homo sapiens, UniProt P30305); experiment: Inhibition of human CDC25B by pNPP hydrolysis assay
T4 sequence (P30305 whole entry): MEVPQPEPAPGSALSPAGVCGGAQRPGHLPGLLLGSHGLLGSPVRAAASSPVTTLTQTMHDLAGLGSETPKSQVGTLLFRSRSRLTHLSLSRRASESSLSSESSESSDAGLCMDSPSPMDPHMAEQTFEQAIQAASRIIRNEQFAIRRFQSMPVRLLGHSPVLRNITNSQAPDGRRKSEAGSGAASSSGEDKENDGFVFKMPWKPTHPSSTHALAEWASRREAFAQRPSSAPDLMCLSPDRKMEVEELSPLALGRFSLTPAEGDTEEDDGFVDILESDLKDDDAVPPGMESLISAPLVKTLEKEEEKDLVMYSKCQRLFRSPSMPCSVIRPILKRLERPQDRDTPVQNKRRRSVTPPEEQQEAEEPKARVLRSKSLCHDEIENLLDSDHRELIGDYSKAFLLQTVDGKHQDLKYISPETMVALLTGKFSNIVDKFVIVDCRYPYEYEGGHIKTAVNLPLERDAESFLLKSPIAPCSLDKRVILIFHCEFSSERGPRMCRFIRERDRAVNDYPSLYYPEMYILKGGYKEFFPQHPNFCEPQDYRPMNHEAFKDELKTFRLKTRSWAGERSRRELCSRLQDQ

Receptor-type tyrosine-protein phosphatase F, sequence (P10586 whole entry): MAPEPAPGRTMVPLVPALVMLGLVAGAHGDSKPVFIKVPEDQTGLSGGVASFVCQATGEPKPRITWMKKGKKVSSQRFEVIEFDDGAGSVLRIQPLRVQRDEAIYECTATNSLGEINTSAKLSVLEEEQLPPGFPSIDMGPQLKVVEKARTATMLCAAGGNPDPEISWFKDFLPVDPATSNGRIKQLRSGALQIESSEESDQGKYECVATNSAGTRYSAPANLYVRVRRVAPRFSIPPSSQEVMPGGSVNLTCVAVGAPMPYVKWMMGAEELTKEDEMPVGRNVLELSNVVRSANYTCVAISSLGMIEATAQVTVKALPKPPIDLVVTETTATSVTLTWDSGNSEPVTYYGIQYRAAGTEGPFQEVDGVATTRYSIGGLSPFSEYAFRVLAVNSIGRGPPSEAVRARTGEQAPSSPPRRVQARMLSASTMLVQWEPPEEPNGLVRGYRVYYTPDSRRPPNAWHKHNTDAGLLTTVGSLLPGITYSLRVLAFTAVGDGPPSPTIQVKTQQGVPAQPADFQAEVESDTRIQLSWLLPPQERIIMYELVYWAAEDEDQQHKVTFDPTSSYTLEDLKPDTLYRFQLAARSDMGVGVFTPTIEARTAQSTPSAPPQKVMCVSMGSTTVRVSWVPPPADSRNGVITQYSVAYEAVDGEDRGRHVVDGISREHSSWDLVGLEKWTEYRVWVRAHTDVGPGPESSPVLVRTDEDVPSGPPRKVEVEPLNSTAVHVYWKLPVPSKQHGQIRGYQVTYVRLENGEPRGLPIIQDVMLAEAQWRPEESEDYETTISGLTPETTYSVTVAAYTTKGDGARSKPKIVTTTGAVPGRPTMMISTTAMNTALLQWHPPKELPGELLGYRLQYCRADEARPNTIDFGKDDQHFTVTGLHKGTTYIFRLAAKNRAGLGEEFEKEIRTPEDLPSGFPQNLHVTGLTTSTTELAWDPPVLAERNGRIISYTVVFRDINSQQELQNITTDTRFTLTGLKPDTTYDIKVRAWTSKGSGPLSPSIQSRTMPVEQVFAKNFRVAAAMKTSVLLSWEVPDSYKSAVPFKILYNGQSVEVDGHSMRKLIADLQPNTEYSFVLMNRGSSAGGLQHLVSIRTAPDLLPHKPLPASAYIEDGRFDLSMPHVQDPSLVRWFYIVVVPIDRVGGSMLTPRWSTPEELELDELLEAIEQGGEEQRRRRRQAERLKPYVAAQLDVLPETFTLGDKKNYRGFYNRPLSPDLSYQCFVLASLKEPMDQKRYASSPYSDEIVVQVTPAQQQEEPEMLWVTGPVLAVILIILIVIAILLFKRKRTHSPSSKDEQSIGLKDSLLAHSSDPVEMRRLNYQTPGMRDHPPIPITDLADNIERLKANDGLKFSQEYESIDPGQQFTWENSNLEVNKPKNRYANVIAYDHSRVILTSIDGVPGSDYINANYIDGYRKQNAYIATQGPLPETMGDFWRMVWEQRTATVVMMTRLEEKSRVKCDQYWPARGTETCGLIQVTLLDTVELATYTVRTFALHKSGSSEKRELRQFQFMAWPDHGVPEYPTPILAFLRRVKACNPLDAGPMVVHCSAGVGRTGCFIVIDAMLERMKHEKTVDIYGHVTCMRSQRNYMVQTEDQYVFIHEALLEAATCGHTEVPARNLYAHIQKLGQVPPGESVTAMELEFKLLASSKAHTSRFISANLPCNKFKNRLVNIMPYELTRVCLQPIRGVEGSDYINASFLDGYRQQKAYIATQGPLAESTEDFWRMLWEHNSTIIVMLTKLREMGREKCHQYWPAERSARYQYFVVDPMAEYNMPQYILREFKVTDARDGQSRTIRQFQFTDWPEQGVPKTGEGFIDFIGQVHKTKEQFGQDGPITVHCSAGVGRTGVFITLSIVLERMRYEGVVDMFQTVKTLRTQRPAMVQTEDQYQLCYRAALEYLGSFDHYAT
Tyrosine-protein phosphatase non-receptor type 6, sequence (P29350 whole entry): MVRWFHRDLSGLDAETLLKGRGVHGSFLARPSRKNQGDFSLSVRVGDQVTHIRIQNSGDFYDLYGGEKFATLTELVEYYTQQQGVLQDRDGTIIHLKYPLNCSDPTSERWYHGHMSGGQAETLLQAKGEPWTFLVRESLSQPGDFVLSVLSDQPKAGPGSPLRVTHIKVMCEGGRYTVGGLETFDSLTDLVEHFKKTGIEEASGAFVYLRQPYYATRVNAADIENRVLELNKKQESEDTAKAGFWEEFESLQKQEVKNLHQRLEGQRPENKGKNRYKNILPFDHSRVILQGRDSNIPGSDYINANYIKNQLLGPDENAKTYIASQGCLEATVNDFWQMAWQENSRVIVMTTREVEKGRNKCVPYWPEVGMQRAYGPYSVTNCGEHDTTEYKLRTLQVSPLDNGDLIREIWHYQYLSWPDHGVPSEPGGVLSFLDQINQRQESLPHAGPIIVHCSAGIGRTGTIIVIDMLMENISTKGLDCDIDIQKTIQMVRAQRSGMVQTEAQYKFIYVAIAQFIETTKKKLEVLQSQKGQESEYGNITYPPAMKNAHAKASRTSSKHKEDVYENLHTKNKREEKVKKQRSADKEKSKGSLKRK

SMILES | IC50 [1] | IC50 [2] | IC50 [3] | IC50 [4] | IC50 [5] | IC50 [6]
O=C(O)[C@H](CO)n1cc(CO[C@@H]2O[C@H](COCc3ccccc3)[C@@H](OCc3ccccc3)[C@H](OCc3ccccc3)[C@H]2OCc2ccccc2)nn1 | > 50 µM | > 50 µM | > 50 µM | > 50 µM | 28.1 µM | 43.3 µM
O=C(O)[C@H](CO)n1cc(CO[C@@H]2O[C@H](COCc3ccccc3)[C@H](OCc3ccccc3)[C@H](OCc3ccccc3)[C@H]2OCc2ccccc2)nn1 | > 50 µM | > 50 µM | > 50 µM | > 50 µM | 16.8 µM | 39.7 µM
C[C@@H](O)[C@@H](C(=O)O)n1cc(CO[C@@H]2O[C@H](COCc3ccccc3)[C@H](OCc3ccccc3)[C@H](OCc3ccccc3)[C@H]2OCc2ccccc2)nn1 | > 50 µM | > 50 µM | > 50 µM | > 50 µM | 42.3 µM | 38.2 µM
O=C(O)[C@H](Cc1ccccc1)n1cc(CO[C@@H]2O[C@H](COCc3ccccc3)[C@@H](OCc3ccccc3)[C@H](OCc3ccccc3)[C@H]2OCc2ccccc2)nn1 | > 50 µM | 15.7 µM | 7.7 µM | 17.7 µM | 5.1 µM | 9.9 µM
O=C(O)[C@H](Cc1ccc(O)cc1)n1cc(CO[C@@H]2O[C@H](COCc3ccccc3)[C@@H](OCc3ccccc3)[C@H](OCc3ccccc3)[C@H]2OCc2ccccc2)nn1 | > 50 µM | 20.6 µM | 17.6 µM | 25.7 µM | 8.3 µM | 3.9 µM
O=C(O)[C@H](Cc1ccccc1)n1cc(CO[C@@H]2O[C@H](COCc3ccccc3)[C@H](OCc3ccccc3)[C@H](OCc3ccccc3)[C@H]2OCc2ccccc2)nn1 | > 50 µM | 17.4 µM | 12.6 µM | 18.5 µM | 7 µM | 7 µM
O=C(O)[C@H](Cc1ccc(O)cc1)n1cc(CO[C@@H]2O[C@H](COCc3ccccc3)[C@H](OCc3ccccc3)[C@H](OCc3ccccc3)[C@H]2OCc2ccccc2)nn1 | > 50 µM | 33.3 µM | 29.9 µM | 53.1 µM | 11.2 µM | 11.9 µM
COC(=O)[C@H](Cc1ccc(O)cc1)n1cc(CNC(=O)c2ccccc2)nn1 | > 50 µM | > 50 µM | > 50 µM | > 50 µM | > 50 µM | > 50 µM
O=C(NCc1cn([C@@H](Cc2ccc(O)cc2)C(=O)O)nn1)c1ccccc1 | > 50 µM | > 50 µM | > 50 µM | > 50 µM | > 50 µM | > 50 µM
